Data set [1] concerns the target T1, rat VR1 (Rattus norvegicus, UniProt O35433).
T1 construct: expressed in transfected cells
In words: [3H]resiniferatoxin (RTX) competition binding assay, VR1-transfected CHO cells. On the procedure: The pUHG102 VR1 plasmid was transfected into CHO cells containing the pTet Off regulatory plasmid (Clontech). In these cells, expression of the VR1 is repressed in the presence of tetracycline but is induced upon removal of the antibiotic. Stable clones were isolated in culture medium containing puromycin (10 μg/mL) and maintained in HAM F12 medium supplemented with tetracycline (1 μg/mL), 5 μg/ml geniticin, 25 mM HEPES, 10% FBS. Cells utilized for assays were grown in culture medium without antibiotic for 48 h before use. Cells were seeded in T75 cell culture flasks in media without antibiotics and grown to approximately 90% confluence. The flasks were then washed with PBS and harvested in 0.25% trypsin, 1 mM EDTA. The cells were pelleted by gentle centrifugation and stored at −20° C. until assay.
Competition Binding Assay
Binding studies with [^3H]resiniferatoxin (RTX) were carried out as described previously with minor modifications (Szallasi et al., 1992). Binding assay mixtures were set up on ice and contained 50-100 pM [^3H]RTX, various concentrations of competing ligands, 0.25 mg/mL BSA (Cohn fraction V), and about 5×10^5 VR1-transfected cells. The final volume was adjusted to 350 μL with DPBS with Ca^2+ and Mg^2+ and 0.25 mg/mL bovine serum albumin. Non-specific binding was determined in the presence of 100 nM nonradioactive RTX. The binding reaction was initiated by transferring the assay mixtures to a 37° C. water bath and was terminated after a 60 min incubation period by cooling the tubes on ice. To reduce non-specific binding, 200 μg/ml α-glycoprotein was added. Membrane-bound RTX was then separated from the free by pelleting the membranes in a Beckman 12 benchtop centrifuge (15 min, maximal velocity), the tips of the tubes containing the pellets were cut off, and the radioactivity was determined by scintillation counting. Equilibrium binding parameters (Ki and cooperativity) were determined by fitting the Hill equation to the measured values with the aid of the program MicroCal Origin 6.0.
(§1) Initial stocks were dissolved in DMSO. For the binding assays, compounds were diluted in with DPBS with Ca^2+ and Mg^2+ and 0.25 mg/mL bovine serum albumin. For the calcium uptake assays, compounds were diluted in DMEM with 0.25 mg/mL bovine serum albumin.

For data set [2], the target named is T1, rat VR1. In words: 45Ca2+-uptake assay in CHO/VR1 cells, antagonism of capsaicin-stimulated uptake. In kind it is cell-based. The following applies: 45Ca2+ uptake stimulated by 50 nM capsaicin. How it is done:
as §1
Molecules were characterized to determine whether they were full agonists, partial agonists, or antagonists. For studies of ^45Ca^2+ uptake by CHO/VR1 cells (Tet-off cells), the cells were plated in 24-well plates to yield a cell density 20-40% of that required to produce confluence. The next day the medium was changed to remove the tetracycline and induce VR1 expression. Experiments were performed approximately 36-40 hours after induction. For ^45Ca^2+ uptake assay, cells were incubated for 5 min at 37° C. in a total volume of 400 μL of serum free DMEM (containing 1.8 mM CaCl2) in the presence of 0.25 mg/mL BSA (Sigma), 1 μCi/mL ^45Ca^2+ (5-30 Ci/g from ICN, CA), and increasing concentrations of the compound to be tested. Immediately after the incubation, extracellular ^45Ca^2+ was removed by washing the cells three times with cold DPBS (containing 1.8 mM CaCl2). Then 400 μl RIPA buffer (50 mM Tris pH 7.4; 150 mM NaCl; 1% Triton X-100; 0.1% SDS; 1% sodium deoxycholate) was added to each well in order to lyse the cells. Plates were shaken slowly for 20 min; then 306 μL of cell lysate was transferred from each well into a scintillation vial and radioactivity was determined by scintillation counting. For each data point in each experiment, four wells were assayed. Data from these experiments were analyzed by computer fit to the Hill equation. At least 3 separate experiments were carried out for each compound. In order to determine antagonist activity, studies were performed in exactly the same fashion with the exception that 50 nM capsaicin was added to the assay mixture to stimulate ^45Ca^2+ uptake.

Setting [3] is: competition with [3H]RTX, rat VR1 in CHO cells, read-out: Ki (nM) Binding Affinity.

T1 sequence (O35433 whole entry): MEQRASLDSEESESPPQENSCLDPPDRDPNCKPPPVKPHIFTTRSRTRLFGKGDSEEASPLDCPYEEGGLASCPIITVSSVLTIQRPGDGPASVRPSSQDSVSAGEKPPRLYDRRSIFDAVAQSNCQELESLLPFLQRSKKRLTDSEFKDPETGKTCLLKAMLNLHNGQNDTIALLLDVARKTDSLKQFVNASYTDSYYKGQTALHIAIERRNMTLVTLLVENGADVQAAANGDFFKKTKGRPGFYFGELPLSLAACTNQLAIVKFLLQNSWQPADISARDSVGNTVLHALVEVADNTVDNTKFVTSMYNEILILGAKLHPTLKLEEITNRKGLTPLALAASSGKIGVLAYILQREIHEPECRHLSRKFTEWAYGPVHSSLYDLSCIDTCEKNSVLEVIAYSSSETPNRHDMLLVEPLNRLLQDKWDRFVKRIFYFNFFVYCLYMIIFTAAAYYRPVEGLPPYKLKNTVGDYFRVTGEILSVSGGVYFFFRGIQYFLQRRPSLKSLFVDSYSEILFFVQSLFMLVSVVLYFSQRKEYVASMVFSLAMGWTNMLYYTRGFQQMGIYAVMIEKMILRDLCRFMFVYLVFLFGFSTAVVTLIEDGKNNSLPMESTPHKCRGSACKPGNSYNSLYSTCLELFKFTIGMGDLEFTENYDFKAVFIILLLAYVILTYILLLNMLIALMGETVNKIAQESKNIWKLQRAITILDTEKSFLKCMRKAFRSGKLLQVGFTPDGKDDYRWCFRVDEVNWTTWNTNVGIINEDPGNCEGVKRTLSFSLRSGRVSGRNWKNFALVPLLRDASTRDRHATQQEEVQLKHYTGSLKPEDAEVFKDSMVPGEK

`CC(C(=O)NCc1cccc2ccccc12)c1ccc(NS(C)(=O)=O)c(F)c1` (centres unmarked) [4-12, N-(1-Naphthylmethyl)-2-[3-fluoro-4-(methylsulfonylamino)phenyl]propionamide]: the melting point (as a rule, the temperature of the solid-liquid transition) lay within 159 to 161 °C. Besides, the Ki (usually the dissociation constant of the complex between target and ligand, obtained from inhibition or displacement) at rat VR1 [1] (setting [3]) is 959 nM. This compound gave a Ki at rat VR1 [2] of 239 nM.

Take `C[C@H](C(=O)NCc1ccc(C(C)(C)C)cc1)c1ccc(NS(C)(=O)=O)c(F)c1` [3-5, N-(4-tert-Butylbenzyl)-(2S)-2-[3-fluoro-4-(methylsulfonylamino)phenyl]propionamide]: the Ki at rat VR1 [1] is 43.9 nM; at rat VR1 [2] it was 6.87 nM.

As for `C[C@@H](NC(=S)NCc1ccc(C(C)(C)C)cc1)c1ccc(NS(C)(=O)=O)c(F)c1` [17-7, (R)—N-(4-t-Butylbenzyl)-N′-{1-[3-fluoro-4-(methylsulfonylamino)phenyl]ethyl}thiourea], the figures for the Ki at rat VR1 [1] and on rat VR1 [2] were 32.8 nM and 39.4 nM, respectively.

On to `C[C@@H](C(=O)NC[C@@H](COC(=O)C(C)(C)C)Cc1ccccc1)c1ccc(NS(C)(=O)=O)c(F)c1` [6-7, N-[(2S)-2-Benzyl-3-(pivaloyloxy)propyl]-(2R)-2-[3-fluoro-4-(methylsulfonylamino)phenyl]propionamide], for which the Ki at rat VR1 [1] (setting [3]) came to 372 nM; at rat VR1 [2], 205 nM.

As for `CC(C(=O)NCC(COC(=O)C(C)(C)C)Cc1ccc(C(C)(C)C)cc1)c1ccc(NS(C)(=O)=O)c(Cl)c1` (centres unmarked) [5-8, N-[2-(4-tert-Butylbenzyl)-3-pivaloyloxypropyl]-2-[3-chloro-4-(methylsulfonylamino)phenyl]propionamide], the melting point was in the range of 142 to 144 °C. Further, the Ki on rat VR1 [1] (setting [3]) turned out to be 3.62 nM. In addition, the Ki on rat VR1 [2] was determined as 12.3 nM.

Regarding `CC(C)(C)c1ccc(CNC(=S)NC(Cc2ccccc2)c2ccc(NS(C)(=O)=O)c(F)c2)cc1` (centres unmarked) [20-15, N-(4-t-Butylbenzyl)-N′-{1-[4-(methylsulfonylamino)-3-fluorophenyl]-2-phenylethyl}thiourea], the melting point was 116 °C. Also, the Ki on rat VR1 [1] (setting [3]) came to 1740 nM. The same compound gave a Ki on rat VR1 [2] of 695 nM.

As to `Cc1ccc(CCCNC(=O)[C@@H](C)c2ccc(NS(C)(=O)=O)c(F)c2)cc1C` [4-17, N-[3-(3,4-Dimethylphenyl)propyl]-(2S)-2-[3-fluoro-4-(methylsulfonylamino)phenyl]propionamide], the Ki at rat VR1 [1] stood at 236 nM; on rat VR1 [2] it was 33.7 nM.

In turn, `CC(C(=O)NCc1ccc(C(C)(C)C)cc1)c1ccc(NS(C)(=O)=O)cc1F` (centres unmarked) [1-66, N-(4-tert-Butylbenzyl)-2-[2-fluoro-4-(methylsulfonylamino)phenyl]propionamide] came in with a melting point of 111 to 113 °C. Besides, the Ki on rat VR1 [1] (setting [3]) stood at 358 nM. Also, affinity at rat VR1 [2] was put at a Ki of 120 nM.

For `CC(NC(=O)NCc1ccc(C(C)(C)C)cc1)c1ccc(NS(C)(=O)=O)cc1` (centres unmarked) [23-1, N-(4-t-Butylbenzyl)-N′-{1-[4-(methylsulfonylamino)phenyl]ethyl}urea], the melting point lay in the range of 95 to 98 °C. The same compound returned a Ki at rat VR1 [1] of 1190 nM. This compound gave a Ki at rat VR1 [2] of 544 nM.

Take `COc1cc(C(C)(C)C(=O)NCCCc2ccc(C)c(C)c2)ccc1NS(C)(=O)=O` [9-6, N-[3-(3,4-Dimethylphenyl)propyl]-2-[3-methoxy-4-(methylsulfonylamino)phenyl]-2-methylpropionamide]: the melting point lay within 93 to 95 °C. This compound came in with a Ki on rat VR1 [1] of 838 nM. This compound yielded a Ki at rat VR1 [2] of 366 nM.

For the compound `CC(C(=O)NCc1ccc(C(C)(C)C)cc1)c1ccc(NS(C)(=O)=O)c(Cl)c1` (centres unmarked) [1-52, N-(4-tert-Butylbenzyl)-2-[3-chloro-4-(methylsulfonylamino)phenyl]propionamide], the melting point was in the range of 126 to 129 °C. Also, on rat VR1 [1] (setting [3]), the inhibition constant Ki is 30.7 nM. For the same compound, the Ki on rat VR1 [2] worked out at 29.5 nM.

As to `Cc1ccc(CCCNC(=O)[C@H](C)c2ccc(NS(C)(=O)=O)c(F)c2)cc1C` [4-16, N-[3-(3,4-Dimethylphenyl)propyl]-(2R)-2-[3-fluoro-4-(methylsulfonylamino)phenyl]propionamide], the Ki was 944 nM on rat VR1 [1] (setting [3]) and 204 nM at rat VR1 [2].

In the case of `C[C@@H](C(=O)NC[C@H](COC(=O)C(C)(C)C)Cc1ccccc1)c1ccc(NS(C)(=O)=O)c(F)c1` [6-8, N-[(2R)-2-Benzyl-3-(pivaloyloxy)propyl]-(2R)-2-[3-fluoro-4-(methylsulfonylamino)phenyl]propionamide], the Ki on rat VR1 [1] (setting [3]) amounted to 297 nM; at rat VR1 [2] it was 98.3 nM.

Take `C[C@@H](C(=O)NCc1ccc(C(C)(C)C)cc1)c1ccc(NS(C)(=O)=O)c(F)c1` [3-6, N-(4-tert-Butylbenzyl)-(2R)-2-[3-fluoro-4-(methylsulfonylamino)phenyl]propionamide]: the inhibition constant Ki at rat VR1 [1] came out at 458 nM; at rat VR1 [2], 102 nM.

As for `CC(C)(C)c1ccc(CNC(=S)NC(C)(C)c2ccc(NS(C)(=O)=O)cc2)cc1` [21-7, N-(4-t-Butylbenzyl)-N′-{1-methyl-1-[4-(methylsulfonylamino)phenyl]ethyl}thiourea], the melting point fell in the range of 161 to 164 °C. For the same compound, the Ki at rat VR1 [2] was 1830 nM.

Consider `C[C@@H](NC(=S)N[C@H](COC(=O)C(C)(C)C)Cc1ccccc1)c1ccc(NS(C)(=O)=O)cc1` [19-14, N-[(2S)-3-phenyl-1-pivaloyloxy-2-propyl]-N′-[(R)-α-methyl-4-(methylsulfonylamino)benzy]thiourea], for which the Ki was 272 nM at rat VR1 [1] and 290 nM on rat VR1 [2].

On to `Oc1cc2c(cc1O)CN(C(=S)NCCc1ccc(Cl)cc1)CCC2` [capsazepine, reference compound], for which the Ki on rat VR1 [1] (setting [3]) turned out to be 1300 nM; at rat VR1 [2], 520 nM.

For “N-(4-t-Butylbenzyl)-N-{1-[4-(methylsulfonylamino)phenyl]ethyl}thiourea [15-1]”, the Ki on rat VR1 [1] (setting [3]) turned out to be 59.3 nM; on rat VR1 [2], 14.7 nM.

`C[C@H](C(=O)NC[C@@H](COC(=O)C(C)(C)C)Cc1ccccc1)c1ccc(NS(C)(=O)=O)c(F)c1` [6-6, N-[(2S)-2-Benzyl-3-(pivaloyloxy)propyl]-(2S)-2-[3-fluoro-4-(methylsulfonylamino)phenyl]propionamide]: the Ki is 20.3 nM on rat VR1 [1] (setting [3]) and 10 nM on rat VR1 [2].

On to `C[C@H](NC(=S)NCc1ccc(C(C)(C)C)cc1)c1ccc(NS(C)(=O)=O)c(F)c1` [17-8, (S)—N-(4-t-Butylbenzyl)-N′-{1-[3-fluoro-4-(methylsulfonylamino)phenyl]ethyl}thiourea], for which the Ki on rat VR1 [1] was 2580 nM; on rat VR1 [2], 4310 nM.

Turning to `Cc1ccc(CC(CNC(=S)N[C@H](C)c2ccc(NS(C)(=O)=O)cc2)COC(=O)C(C)(C)C)cc1C` (stereo partly drawn) [18-6, N-[2-(3,4-Dimethylbenzyl)-3-(pivaloyloxy)propyl]-N′-{(1R)-1-[4-(methylsulfonylamino)phenyl]ethyl}thiourea], the inhibitory constant (Ki) at rat VR1 [1] turned out to be 6.1 nM; at rat VR1 [2], 6.86 nM.

With `C[C@@H](NC(=S)NCc1ccc(C(C)(C)C)cc1)c1ccc(NS(C)(=O)=O)cc1` [16-5, N-(4-t-Butylbenzyl)-N′-{(1R)-1-[4-(methylsulfonylamino)phenyl]ethyl}thiourea], the Ki was determined as 40.8 nM at rat VR1 [1] (setting [3]) and 4.52 nM on rat VR1 [2].

For the compound `Cc1ccc(C[C@H](CNC(=S)N[C@H](C)c2ccc(NS(C)(=O)=O)cc2)COC(=O)C(C)(C)C)cc1C` [18-7, N-[(2R)-2-(3,4-Dimethylbenzyl)-3-(pivaloyloxy)propyl]-N′-{(1R)-1-[4-(methylsulfonylamino)phenyl]ethyl}thiourea], the values for the Ki at rat VR1 [1] and at rat VR1 [2] were 15.2 nM and 7.14 nM, respectively.

Source of the values: patent publication US8642657B2 (Gruenenthal GmbH, priority 2003, dated 2014).
